Patent US4829082A, “Pharmaceutical compositions for the treatment of skin diseases” (Nisshin Chemicals Co., Ltd., priority 1986, dated 1989)
Where “and” joins values, the source holds several entries; their conditions need not be identical. Equal values may be shown once.

Tests used:
skin pruritus = assay: Skin pruritus, human patient (Test Example 7); type: in vivo; details: same ointment as Test Example 2 (0.5%)
rats = assay: Percutaneous subacute toxicity in rats; type: in vivo; details: lotions containing 0.5% and 1.5% of TOC ester
Procedure: Percutaneous subacute toxicity in rats
Tests were conducted for 30 days using lotions containing 0.5% and 1.5% of TOC ester, respectively.

[1] = General statement on toxicity, side effects and healing effect
Acute toxicity in mice = details: mouse, in vivo
housewife eczema = assay: Housewife eczema, human patient (Test Example 11); type: in vivo; details: same hydrophilic ointment as Test Example 10 (0.3%), in a week
skin keratosis = assay: Skin keratosis, human patient (Test Example 8); type: in vivo; details: same ointment as Test Example 2 (0.5%), three days after treatment
guinea pigs = assay: Appearance of skin allergy in guinea pigs (induction test); type: in vivo; details: challenge two weeks after sensitization, 0.1 ml acetone solution containing 0.05%, 0.10% and 0.20% of TOC ester
Procedure: Appearance of skin allergy in guinea pigs
Induction tests were conducted, wherein guinea pigs were sensitized with 0.1 ml of 30% chloroform solution, and two weeks after sensitization, the pigs were treated on the skin with 0.1 ml of acetone solution containing 0.05%, 0.10% and 0.20% of TOC ester, respectively.

dermal ulcer = assay: Dermal ulcer occurred in a rheumatic patient (Test Example 3); type: in vivo, human; details: same ointment as Test Example 2 (0.5%)
Description: (Dermal ulcer occurred in a rheumatic patient)
The same ointment as used in Test Example 2 was applied directly or applied using a gauze over which said ointment had been spread, to a dermal ulcer occurred on a sacral region, sciatic tuber region, elbow head, inner and outer ankle regions and heel region of a person suffering from arthrorheumatism under hospital treatment.

frostbite = assay: Frostbite, human patient (Test Example 5); type: in vivo; details: same ointment as Test Example 2 (0.5%), about one week
callosity = assay: Callosity, human patient (Test Example 9); type: in vivo; details: lotion containing 0.5% by weight of TOC ester, about two weeks
eyes of rabbits = assay: Irritation on eyes of rabbits; type: in vivo; details: physiological salt suspensions containing 0.05% and 0.5% of TOC ester
Description: Irritation on eyes of rabbits

bedsore = assay: Bedsore, human patient (Test Example 2); type: in vivo; details: oil ointment containing 0.5% by weight of TOC ester on gauze
Description: An oil ointment containing 0.5% by weight of TOC ester spread on a gauze was applied to the bedsore areas occurred in the ischium and whirlbone of a person lying in bed for a long time suffering from injury of myelon, said gauze being embedded in a depressed region of deep ulcer of bedsore after crumpling the gauze into a ball, and being applied as it was to a superficial region of the ulcer. The gauze was exchanged once or twice a day.

experimental bedsore = assay: Experimental bedsore of rabbits; type: in vivo, Japanese white male rabbits
Description: (Experimental bedsore of rabbits)
Japanese white male rabbits weighing 2.5-4.4 kg were used.
An experimental bedsore was formed on the rabbits in accordance with the methods of Kosiak (Arch. Phys. Med. Rehabil., Vbl. 40, 62-69, 1959) and Fukawa et al. (Applied Pharmacology, Vol. 23, No. 6, 999-1011, 1982). The rabbits were anethetized with Nembutal® and fixed so that the shaved right trochanteric region of the rabbits was held horizontally, a pressure of 500-600 mmHg/cm^2 was applied to 2 cm^2 area of the skin in the shaved region, and the rabbits were held for 5-10 hours to allow development of bedsore. Two days after application of the pressure, occurrence of bedsore was confirmed.
The affective rabbits were distributed to two groups. One group (5 rabbits) was coated on the surface of bedsore region with a lotion containing 0.5% by weight of TOC ester by a brush once a day (said lotion being prepared from 900 parts by weight of water, 95 parts by weight of ethanol and 5 parts by weight of TOC ester). The other control group (4 rabbits) was coated once a day with only the base of the lotion (mixture of 900 parts of weight of water and 95 parts by weight of ethanol). One week after the treatment, a sheet of Japanese paper was applied to the bedsore area occurred in each rabbit. The injured area of said bedsore was transferred to the paper according to the etching method, and the transferred areas were measured by means of a planimeter.

eczema craquele = assay: Eczema craquele (cracking and chaps), human patient (Test Example 10); type: in vivo; details: hydrophilic ointment containing 0.3% by weight of TOC ester
Description: [Eczema craquele (cracking and chaps)]

[2] = system: ulcer produced after zoster; assay: Zoster, human patient (Test Example 6); type: in vivo
Description: To an ulcer produced after zoster had occurred on the neck through the shoulder of a person was applied a gauze over which the same ointment as used in Test Example 2 had been spread.

burn ulcer = assay: Burn ulcer, human patient (Test Example 4); type: in vivo; details: same ointment as Test Example 2 (0.5%), after one week
human being = assay: Chafe on human being (Patch test); type: in vivo; details: cream containing 0.1% and 0.3% of TOC ester
Description: Chafe on human being (Patch test)

CC(C=CC1=C(C)CCCC1(C)C)=CC=CC(C)=CC(=O)Oc1c(C)c(C)c2c(c1C)CCC(C)(CCCC(C)CCCC(C)CCCC(C)C)O2 (stereo not drawn) [TOC ester, tocopheryl retinoate]
itching sensation (skin pruritus; one day after treatment): itching sensation ceased | healing of skin pruritus (skin pruritus; three days after the treatment): the skin pruritus healed perfectly | change in general symptoms, dermal symptoms and body weight (rats; 30 days): no change in general symptoms, dermal symptoms and body weight | change in blood and physiological examinations, anatomical observation, wet weight of organs, and pathological histological examination (rats; after 30 days): no change was observed at all | side effects [1]: almost no side effects | toxicity [1]: extremely low in toxicity | LD50 (Acute toxicity in mice; im): > 2500 mg/kg | LD50 (Acute toxicity in mice; ip): > 10000 mg/kg | LD50 (Acute toxicity in mice; po): > 10000 mg/kg | LD50 (Acute toxicity in mice; sc): > 2500 mg/kg | healing of housewife eczema (housewife eczema): a marked improvement in healing of the disease | healing of skin keratosis (skin keratosis): a marked improvement in healing of the disease | contact skin allergy (guinea pigs): No contact skin allergy was observed | adverse side effects (dermal ulcer; during treatment period): No adverse side effects was observed | proliferation of the granulation and epidermization (dermal ulcer; large ulcers, about three months): marked improvements in proliferation of the granulation and in epidermization | proliferation of the granulation and epidermization (dermal ulcer; small ulcers, about two weeks): marked improvements in proliferation of the granulation and in epidermization | healing of frostbite (frostbite): an improvement in healing of frostbite | improvement of callosity (callosity): an improvement such as softening of the callosity | irritation on eyes (eyes of rabbits): no change was observed | bottom region of deep ulcer, buildup of flesh owing to granulation (bedsore; about one month): marked buildup of flesh owing to granulation at the bottom region of deep ulcer | improvement in cuticularization along the circumference of ulcer (bedsore; about one month): a remarkable improvement in cuticularization | width of cuticularization along the circumference of ulcer (bedsore; about one month): about 5 mm | superficial region of ulcer, epidermization (bedsore; after one week): epidermization was observed on the superficial region of ulcer | superficial region of ulcer, disappearance of sore and closure (bedsore; two weeks thereafter): sore disappeared from the superficial region of ulcer, and the epidermis was formed to close the sore region | Injured area difference, Average ± standard deviation (experimental bedsore; lotion containing 0.5% TOC ester group, 5 rabbits, one week, control 0.907 ± 0.292): 1.82 ± 0.213 cm2 | Injured area after one week (experimental bedsore; lotion containing 0.5% TOC ester once a day, individual rabbits): 1.30 cm2 and 0.98 cm2 and 0.70 cm2 and 0.09 cm2 and 0.23 cm2 | Injured area at the initiation of treatment (experimental bedsore; lotion containing 0.5% TOC ester, individual rabbits, before treatment): 2.68 cm2 and 3.01 cm2 and 1.95 cm2 and 2.20 cm2 and 2.56 cm2 | Injured area, Difference (experimental bedsore; lotion containing 0.5% TOC ester, individual rabbits, initiation minus after one week): 1.38 cm2 and 2.03 cm2 and 1.25 cm2 and 2.11 cm2 and 2.33 cm2 | reduction in the injured area of bedsore (experimental bedsore; lotion containing 0.5% by weight of TOC ester, once a day, one week, 5 rabbits): marked reduction in the injured area of bedsore | adverse side-effects (eczema craquele; during the period of treatment): no adverse side-effects were observed | healing of eczema craquele (eczema craquele; one month): a marked improvement in healing of the disease | healing of eczema craquele (eczema craquele; two months): the disease perfectly healed | healing of the ulcer after zoster ([2]; same ointment as Test Example 2 (0.5%) on gauze, about one week): a marked improvement in healing of the ulcer | recurrence ([2]; same ointment as Test Example 2 (0.5%), six months after the healing): no recurrence was observed | healing of burn ulcer (burn ulcer): a remarkable improvement in healing of the ulcer | rubor or expansion (patch test) (human being): no rubor or expansion was observed at all
